These results are taken from US20080118943A1 (priority 2005, published 2008).

For one experiment, the system named is L. lactis. As to conditions: cited from earlier work.
Experiment [1] has as its system folate overproducing L. plantarum strains. The experiment is described as follows: Growth rate of folate overproducing L. plantarum strains (pNZ7019, pNZ7021) on modified CDM with methotrexate. The format is cell-based, Lactobacillus plantarum. As to conditions: 2.5 mg/L MTX. Here is the method: (§1) Wild type L. plantarum WCFS1 strains and its derivatives were grown at 37° C. on Chemically Defined Media (CDM), containing 19 g/L β-phosphoglycerate (6) or modified CDM. In this modified CDM, glycine, inosine, orotic acid, thymidine, guanine, adenine, uracil and xantine were omitted from the normal CDM. Additionally […] chloroamphenicol was added to all the media used. Methotrexate (Sigma, […]) was added to both types of CDM, in concentrations ranging from 0 to 10 mg/l.
(§2) Microtiter plates were used to determine the growth rate of the three L. plantarum strains harbouring the different vectors. The growth of the three strains was monitored in a 96 well microtiter plate for 35 hours using a spectrophotometer (SPECTRAmax®, Molecular Devices, Sunnyvale, Calif., USA). The growth was tested on the two types of media, and each construct was analyzed in triplicate on both media for the following MTX concentrations: 0, 0.3125, 0.625, 1.25 and 2.5 mg/L.

In experiment [2] the test system is wild type L. plantarum WCFS1. The experiment is described as follows: Growth rate of wild type L. plantarum on modified CDM (lacking folate dependent metabolites) with methotrexate. The format is cell-based, Lactobacillus plantarum. Conditions: for growth inhibition of the wild type strain: modified CDM. The protocol: as §1, §2
The test system of experiment [3] is L. plantarum strains (wild type, pNZ7019, pNZ7021). The experiment is described as follows: Growth rate of L. plantarum strains on CDM with folate dependent metabolites and methotrexate. The format is cell-based, Lactobacillus plantarum. Conditions: 0 to 2.5 mg/L MTX. The protocol: as §1, §2

Consider `CN(Cc1cnc2nc(N)nc(N)c2n1)c1ccc(C(=O)N[C@@H](CCC(=O)O)C(=O)O)cc1` [MTX, methotrexate], for which the sensitivity to antifolate result in the experiment with L. lactis is given as “insensitive”. Moreover, the “growth of the folate overproducing strains” value in experiment [1] was “grew well”. Further, the “growth inhibition of the wild type strain” value is “complete growth inhibition” in experiment [2] (2.5 mg/L MTX); “dose dependent growth inhibition” in experiment [2] (between 0 and 2.5 mg/L MTX). In addition, the “growth rate (μ) of the wild type” value in experiment [2] (1.25, 1.5, 2.0 and 2.5 mg/l MTX, medium lacking folate dependent metabolites) is less than 0.05 h⁻¹. In experiment [3], the “growth inhibition in the presence of folate dependent metabolites” value is “none of the tested strains was significantly inhibited”.
For `COc1cc(Cc2cnc(N)nc2N)cc(OC)c1OC` [trimethoprim], the sensitivity to antifolate entry with L. lactis was “insensitive”.
